Data published in the supplement of paper PMC10307832.

Assays:
Test in all cases: relative viability (nuclei count vs DMSO), 5 days (fraction); higher = more cells survive
[1] = compound: Cc1cnc(-c2cnc(NCCNc3ccc(C#N)cn3)nc2-c2ccc(Cl)cc2Cl)[nH]1
Method in brief: (§1)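 Cells of lung cancer lines were placed in 1536-well plates and kept overnight at 37 °C. Pinning then delivered five library-drug doses (not always all listed), spaced by √10, onto plates anchored with vehicle, and the cells were left 5 days without changing medium. One step fixed, permeabilised and stained them with Hoechst, and MetaXpress counted nuclei in 4× images. Viability, as a median over plates, is treated-well nuclei divided by vehicle-well nuclei, with acceptance only at control CV below 25% and at least one doubling.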

Tivozanib = compound: COc1cc2nccc(Oc3ccc(NC(=O)Nc4cc(C)on4)c(Cl)c3)c2cc1OC [Tivozanib]
Method in brief: as §1

Pimozide = compound: O=c1[nH]c2ccccc2n1C1CCN(CCCC(c2ccc(F)cc2)c2ccc(F)cc2)CC1 [Pimozide]
Method in brief: as §1

CPI-613 = compound: O=C(O)CCCCC(CCSCc1ccccc1)SCc1ccccc1 [CPI-613]
Method in brief: as §1

Cytarabine = compound: Nc1ccn([C@@H]2O[C@H](CO)[C@@H](O)[C@@H]2O)c(=O)n1 [Cytarabine]
Method in brief: as §1

JQ1 = compound: Cc1sc2c(c1C)C(c1ccc(Cl)cc1)=N[C@@H](CC(=O)OC(C)(C)C)c1nnc(C)n1-2 [JQ1]
Method in brief: as §1

Docetaxel = compound: CC(=O)O[C@@]12CO[C@@H]1C[C@H](O)[C@@]1(C)C(=O)[C@H](O)C3=C(C)[C@@H](OC(=O)[C@H](O)[C@@H](NC(=O)OC(C)(C)C)c4ccccc4)C[C@@](O)([C@@H](OC(=O)c4ccccc4)[C@H]21)C3(C)C [Docetaxel]
Method in brief: as §1

Cell Line	relative viability ([1]; 0.08 µM)	relative viability ([1]; 0.253 µM)	relative viability ([1]; 0.8 µM)	relative viability ([1]; 2.53 µM)	relative viability (Tivozanib; 0.005 µM)	relative viability (Tivozanib; 0.01581 µM)	relative viability (Tivozanib; 0.05 µM)	relative viability (Tivozanib; 0.1581 µM)	relative viability (Tivozanib; 0.5 µM)	relative viability (Pimozide; 0.08 µM)	relative viability (Pimozide; 0.253 µM)	relative viability (Pimozide; 0.8 µM)	relative viability (Pimozide; 2.53 µM)	relative viability (Pimozide; 8 µM)	relative viability (CPI-613; 5 µM)	relative viability (CPI-613; 15.81 µM)	relative viability (CPI-613; 50 µM)	relative viability (CPI-613; 158.11 µM)	relative viability (CPI-613; 500 µM)	relative viability (Cytarabine; 0.005 µM)	relative viability (Cytarabine; 0.01581 µM)	relative viability (Cytarabine; 0.05 µM)	relative viability (Cytarabine; 0.1581 µM)	relative viability (Cytarabine; 0.5 µM)	relative viability (JQ1; 0.04 µM)	relative viability (JQ1; 0.1265 µM)	relative viability (JQ1; 0.4 µM)	relative viability (JQ1; 1.265 µM)	relative viability (JQ1; 4 µM)	relative viability (Docetaxel; 0.0002 µM)	relative viability (Docetaxel; 0.000632 µM)	relative viability (Docetaxel; 0.002 µM)	relative viability (Docetaxel; 0.006325 µM)	relative viability (Docetaxel; 0.02 µM)
HARA	1.01	0.737	0.859	0.833	0.928	0.963	0.995	0.937	0.976	0.812	0.995	0.876	0.952	0.908	0.909	0.862	0.984	0.6	0.0433	0.788	0.716	0.397	0.24	0.221	0.867	0.569	0.533	0.322	0.288	0.796	0.46	0.197	0.188	0.0932
COR-L23	1.08	0.897	1.04	0.934	1.01	0.989	1.06	1.09	0.841	1.08	1.03	0.949	0.981	0.912	1	0.946	1.03	0.415	0.0149	1.06	0.874	0.656	0.234	0.172	0.965	0.848	1.02	0.54	0.549	0.963	0.904	0.514	0.184	0.141
NCI-H23	0.891	0.873	0.941	0.842	0.943	0.966	0.913	0.661	0.61	0.95	1.05	0.773	0.851	0.808	0.982	0.881	0.943	0.39	0.043	0.773	0.564	0.559	0.246	0.203	0.919	0.874	0.584	0.274	0.218	0.99	0.725	0.296	0.209	0.137
SW 900	0.902	0.803	0.759	0.729	0.894	0.855	0.844	0.4	0.791	0.916	0.84	0.468	0.811	0.742	0.837	0.642	1.02	0.601	0.0301	0.725	0.674	0.564	0.26	0.204	0.87	0.766	0.557	0.26	0.209	0.69	0.422	0.292	0.232	0.174
NCI-H1355	0.995	0.874	0.939	0.907	0.941	0.938	1.05	0.702	0.897	0.968	0.964	0.954	0.956	0.907	0.963	0.95	0.949	0.735	0.0943	0.89	0.922	0.758	0.489	0.302	0.963	0.951	0.917	0.629	0.535	0.982	0.91	0.517	0.272	0.227
NCI-H2023	1.32	0.794	1.06	0.939	0.966	0.951	0.927	0.847	0.923	0.993	0.961	0.82	0.858	0.778	0.926	0.836	0.91	0.0969	0.0098	0.542	0.282	0.172	0.107	0.0892	0.893	0.665	0.439	0.243	0.207	0.846	0.547	0.147	0.12	0.0751
A549	1.06	0.957	0.945	0.958	0.939	0.99	0.994	0.942	0.944	0.96	0.89	0.981	0.952	0.874	0.973	0.911	0.978	0.624	0.647	0.861	0.682	0.391	0.101	0.0441	0.953	0.912	0.909	0.686	0.363	0.914	0.68	0.0907	0.0644	0.0347
NCI-H2085	1.04	0.933	0.995	1.02	0.982	1	1.02	0.936	0.982	0.973	1.01	0.957	1.02	0.881	0.987	0.935	0.935	0.82	0.246	0.965	0.929	0.868	0.808	0.801	1.01	0.891	0.867	0.622	0.537	0.968	0.987	0.746	0.504	0.373
NCI-H522	1.07	1.01	1.02	0.873	0.961	1.21	0.925	0.802	0.787	0.93	0.885	0.868	0.893	0.906	0.864	0.944	1.09	0.921	0.53	0.868	0.878	0.762	0.566	0.53	0.957	0.915	0.793	0.457	0.425	0.927	0.727	0.689	0.579	0.389
EKVX	1	0.824	0.975	0.835	0.908	0.989	1.09	0.939	0.971	–	0.906	0.923	0.978	0.984	0.935	0.959	0.932	0.628	0.935	1.02	0.913	0.694	0.364	0.362	0.997	0.781	0.939	0.827	0.769	0.97	0.874	0.462	0.262	0.176
NCI-H1915	1.02	–	0.973	0.919	0.959	0.971	0.984	0.896	0.75	0.972	0.919	0.631	0.928	0.925	1.01	0.996	0.97	0.949	0.0528	0.916	0.916	0.854	0.609	0.503	0.975	0.702	0.904	0.427	0.269	0.986	0.943	0.326	0.262	0.16
HCC-366	1.04	0.928	0.968	0.925	0.982	0.98	1.02	1.02	0.992	0.978	1.01	0.967	0.992	0.972	1.02	1.04	1.09	0.413	0.0138	1.01	0.974	0.884	0.337	0.11	1.05	–	1.08	0.693	0.325	0.946	0.631	0.14	0.0335	0.03
NCI-H3122	0.962	–	0.988	0.965	0.961	1.03	1.01	1.12	1.02	0.983	1.02	0.948	0.962	1.03	0.969	1.01	1.02	0.956	0.146	0.99	0.928	0.971	0.553	0.399	0.962	0.791	0.96	0.857	0.518	0.981	0.839	0.731	0.184	0.12
LC-2-ad	1.03	–	0.824	0.982	0.975	0.995	0.928	0.815	0.569	0.942	0.894	0.82	0.974	0.897	0.876	0.924	0.968	0.392	0.029	0.832	0.856	0.778	0.487	0.296	0.996	0.462	0.545	0.31	0.286	0.653	0.46	0.328	0.282	0.202
COR-L 105	0.991	0.887	0.868	0.563	0.901	0.914	0.93	0.843	0.859	–	1.1	0.907	0.862	0.838	0.853	0.872	0.839	0.364	0.29	0.905	0.81	0.627	0.448	0.386	0.684	0.607	0.38	0.352	0.33	0.86	0.811	0.536	0.418	0.302
NCI-H1651	0.975	0.924	0.982	1.02	0.941	0.951	1.05	0.882	0.98	0.977	1	0.964	0.913	0.973	0.995	0.947	0.93	0.769	0.527	1.07	0.972	0.986	0.664	0.476	0.908	0.838	0.708	0.606	0.546	0.858	0.979	0.671	0.198	0.14
CAL-12T	1.03	0.933	0.899	0.927	0.857	0.941	0.994	0.698	0.959	0.951	0.936	0.909	0.867	0.832	0.877	0.829	0.822	0.423	0.235	0.983	0.909	0.789	0.397	0.255	0.867	0.818	0.798	0.321	0.293	0.791	0.418	0.302	0.21	0.178
NCI-H2126	1.03	0.927	0.952	1.04	0.968	0.961	1.04	0.713	0.98	0.978	0.948	1.02	0.966	0.986	0.98	0.991	1.05	0.563	0.592	0.887	0.9	0.716	0.714	0.618	1.01	0.928	0.858	0.697	0.648	1.02	0.886	0.624	0.369	0.227
